# Values joined by “and” are separate entries in the source; they are usually repeats but may differ in a detail not shown here. Equal entries are not always repeated. Inconclusive results and toxic doses are left out.
# Test system: P388 leukemia ip, CD2F1 mice, survival T/C
# Assay: NCI In Vivo Anticancer Drug Screen. Data for tumor model P388 Leukemia (intraperitoneal) in CD2F1 (CDF1) mice
# Details: endpoint: median survival time, higher = longer survival
# Summary of the method: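 Mice carrying the transplanted tumor received test compound or vehicle. Survival was recorded in each group, and the value is the treated-group measurement divided by that of the vehicle-treated control group.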
# [1] = dose: 100.0 mg/kg/injection, schedule: Q01DX001 (ip), vehicle: saline with Tween-80
# [2] = dose: 200.0 mg/kg/injection, schedule: Q01DX001 (ip), vehicle: saline with Tween-80
# [3] = dose: 400.0 mg/kg/injection, schedule: Q01DX001 (ip), vehicle: saline with Tween-80
# [4] = dose: 50.0 mg/kg/injection, schedule: Q01DX005 (ip), vehicle: saline with Tween-80
# [5] = dose: 100.0 mg/kg/injection, schedule: Q01DX005 (ip), vehicle: saline with Tween-80
# [6] = dose: 200.0 mg/kg/injection, schedule: Q01DX005 (ip), vehicle: saline with Tween-80
# [7] = dose: 50.0 mg/kg/injection, schedule: Q01DX009 (ip), vehicle: water
# [8] = dose: 100.0 mg/kg/injection, schedule: Q01DX009 (ip), vehicle: water
# [9] = dose: 200.0 mg/kg/injection, schedule: Q01DX009 (ip), vehicle: water
# [10] = dose: 50.0 mg/kg/injection, schedule: Q01DX005 (ip), vehicle: distilled water + alcohol
# [11] = dose: 100.0 mg/kg/injection, schedule: Q01DX005 (ip), vehicle: distilled water + alcohol
# [12] = dose: 200.0 mg/kg/injection, schedule: Q01DX005 (ip), vehicle: distilled water + alcohol
# [13] = dose: 50.0 mg/kg/injection, schedule: Q01DX009 (ip), vehicle: Klucel (hydroxypropylcellulose) (HPC)
# [14] = dose: 100.0 mg/kg/injection, schedule: Q01DX009 (ip), vehicle: Klucel (hydroxypropylcellulose) (HPC)
# [15] = dose: 200.0 mg/kg/injection, schedule: Q01DX009 (ip), vehicle: Klucel (hydroxypropylcellulose) (HPC)
# [16] = dose: 60.0 mg/kg/injection, schedule: Q01DX005 (ip), vehicle: Klucel (hydroxypropylcellulose) (HPC)
# [17] = dose: 120.0 mg/kg/injection, schedule: Q01DX005 (ip), vehicle: Klucel (hydroxypropylcellulose) (HPC)
# [18] = dose: 240.0 mg/kg/injection, schedule: Q01DX005 (ip), vehicle: Klucel (hydroxypropylcellulose) (HPC)
# [19] = dose: 50.0 mg/kg/injection, schedule: Q01DX009 (ip), vehicle: saline with Tween-80
# [20] = dose: 100.0 mg/kg/injection, schedule: Q01DX009 (ip), vehicle: saline with Tween-80
# [21] = dose: 200.0 mg/kg/injection, schedule: Q01DX009 (ip), vehicle: saline with Tween-80
# [22] = dose: 50.0 mg/kg/injection, schedule: Q01DX009 (ip), vehicle: saline
# [23] = dose: 100.0 mg/kg/injection, schedule: Q01DX009 (ip), vehicle: saline
# [24] = dose: 200.0 mg/kg/injection, schedule: Q01DX009 (ip), vehicle: saline
# [25] = dose: 25.0 mg/kg/injection, schedule: Q01DX009 (ip), vehicle: Klucel (hydroxypropylcellulose) (HPC)
structure (smiles),measurement,setting,value
COC(=O)C1=C/CCCN(CCC2OCC(CBr)O2)/C=C\1C(=O)OC (stereo not drawn),T/C,[1],99 % of control
same,T/C,[2],102 % of control
same,T/C,[3],98 % of control
O=C(N/C(=C\c1ccccc1)C(=O)N1CCNCC1)c1ccccc1,T/C,[4],93 % of control
same,T/C,[5],89 % of control
same,T/C,[6],87 % of control
C=C(CN(C)C)C(=O)c1ccccc1C,T/C,"dose: 0.78 mg/kg/injection, schedule: Q01DX005 (ip), vehicle: saline",102 % of control
same,T/C,"dose: 1.56 mg/kg/injection, schedule: Q01DX005 (ip), vehicle: saline",98 % of control
same,T/C,"dose: 3.12 mg/kg/injection, schedule: Q01DX005 (ip), vehicle: saline",94 % of control
same,T/C,"dose: 6.25 mg/kg/injection, schedule: Q01DX005 (ip), vehicle: suspension in saline",108 % of control
CC1CCCCC1=C(C#N)C#N (stereo not drawn),T/C,"dose: 12.5 mg/kg/injection, schedule: Q01DX009 (ip), vehicle: other",95 % of control
same,T/C,"dose: 25.0 mg/kg/injection, schedule: Q01DX009 (ip), vehicle: other",100 % of control
Cn1c(=O)[nH]cc(F)c1=O,T/C,"dose: 10.0 mg/kg/injection, schedule: Q01DX009 (ip), vehicle: saline",104 % of control
same,T/C,"dose: 20.0 mg/kg/injection, schedule: Q01DX009 (ip), vehicle: saline",100 % of control
same,T/C,"dose: 40.0 mg/kg/injection, schedule: Q01DX009 (ip), vehicle: saline",98 % of control
CCOC(=O)NNCC(=O)O,T/C,"dose: 12.5 mg/kg/injection, schedule: Q01DX009 (ip), vehicle: water",104 % of control
same,T/C,"dose: 25.0 mg/kg/injection, schedule: Q01DX009 (ip), vehicle: water",105 % of control
same,T/C,[7],101 % of control
same,T/C,[8],94 % of control
same,T/C,[9],98 % of control
C/C(=N\NC(=S)N1CCCC1)c1cnccn1,T/C,"dose: 6.25 mg/kg/injection, schedule: Q01DX005 (ip), vehicle: saline with Tween-80",100 % of control
same,T/C,"dose: 12.5 mg/kg/injection, schedule: Q01DX005 (ip), vehicle: saline with Tween-80",103 % of control
same,T/C,"dose: 25.0 mg/kg/injection, schedule: Q01DX005 (ip), vehicle: saline with Tween-80",100 % of control
N/N=C1/C(=O)N(c2ccc(S(N)(=O)=O)cc2)C(=O)C1C(=O)Nc1ccc(S(N)(=O)=O)cc1 (stereo not drawn),T/C,"dose: 60.0 mg/kg/injection, schedule: Q01DX005 (ip), vehicle: saline with Tween-80",114 % of control
same,T/C,"dose: 120.0 mg/kg/injection, schedule: Q01DX005 (ip), vehicle: saline with Tween-80",101 % of control
same,T/C,"dose: 240.0 mg/kg/injection, schedule: Q01DX005 (ip), vehicle: saline with Tween-80",106 % of control
Nc1ncnc2c1ccn2CC(O)CO (stereo not drawn),T/C,[10],101 % of control
same,T/C,[11],100 % of control
same,T/C,[12],101 % of control
COC1=C(OC)C(=O)C(COC2CCCCO2)=CC1=O (stereo not drawn),T/C,"dose: 7.5 mg/kg/injection, schedule: Q01DX005 (ip), vehicle: saline with Tween-80",98 % of control
same,T/C,"dose: 15.0 mg/kg/injection, schedule: Q01DX005 (ip), vehicle: saline with Tween-80",103 % of control
CNC(=O)CC(C(=O)O)N(C)C (stereo not drawn),T/C,[7],98 % of control
same,T/C,[8],106 % of control
same,T/C,[9],107 % of control
CN(C)N1C(=O)C(c2ccccc2)(c2ccccc2)CSC1=S,T/C,[13],108 % of control
same,T/C,[14],100 % of control
same,T/C,[15],101 % of control
O=[N+]([O-])c1ccc(N=C/C=C\Nc2ccc([N+](=O)[O-])cc2)cc1,T/C,[16],87 % of control
same,T/C,[17],93 % of control
same,T/C,[18],104 % of control
Cc1csc(=NCc2cccnc2)n1C,T/C,"dose: 6.25 mg/kg/injection, schedule: Q01DX009 (ip), vehicle: saline",100 % of control
same,T/C,"dose: 12.5 mg/kg/injection, schedule: Q01DX009 (ip), vehicle: saline",107 % of control
C=Cc1ccc2cccc(O)c2n1,T/C,"dose: 25.0 mg/kg/injection, schedule: Q01DX001 (ip), vehicle: saline with Tween-80",106 % of control
same,T/C,"dose: 50.0 mg/kg/injection, schedule: Q01DX001 (ip), vehicle: saline with Tween-80",106 % of control
same,T/C,[1],89 % of control and 94 % of control
CCO/C=N/NC(=O)CNC(=O)C=[N+]=[N-],T/C,"dose: 180.0 mg/kg/injection, schedule: Q01DX009 (ip), vehicle: water",172 % of control
CC(C)N1CCSC1=S,T/C,[19],104 % of control
same,T/C,[20],90 % of control
same,T/C,[21],100 % of control
CC1=C(CN(CC(=O)O)CC(=O)O)C(=O)C(C(C)C)=C/C1=C(\c1ccccc1S(=O)(=O)O)c1cc(C(C)C)c(O)c(CN(CC(=O)O)CC(=O)O)c1C,T/C,[22],108 % of control
same,T/C,[23],104 % of control
same,T/C,[24],103 % of control
O=C1NCCNC1c1ccccc1 (stereo not drawn),T/C,"dose: 25.0 mg/kg/injection, schedule: Q01DX009 (ip), vehicle: saline",102 % of control
same,T/C,[22],102 % of control
same,T/C,[23],98 % of control
same,T/C,[24],100 % of control
CC1(C)OC1(C)C,T/C,[19],100 % of control
same,T/C,[20],104 % of control
same,T/C,[21],102 % of control
same,T/C,"dose: 400.0 mg/kg/injection, schedule: Q01DX009 (ip), vehicle: saline with Tween-80",111 % of control
C=CCn1/c(=N\NC(=O)c2ccncc2)sc2ccccc21,T/C,"dose: 6.25 mg/kg/injection, schedule: Q01DX009 (ip), vehicle: Klucel (hydroxypropylcellulose) (HPC)",114 % of control
same,T/C,"dose: 12.5 mg/kg/injection, schedule: Q01DX009 (ip), vehicle: Klucel (hydroxypropylcellulose) (HPC)",100 % of control
same,T/C,[25],103 % of control
NC(CC(=O)O)C(=O)OCc1cccc(N=Nc2ccccc2)c1 (stereo not drawn),T/C,"dose: 50.0 mg/kg/injection, schedule: Q04DX003 (ip), vehicle: saline with Tween-80",99 % of control
same,T/C,"dose: 100.0 mg/kg/injection, schedule: Q04DX003 (ip), vehicle: saline with Tween-80",90 % of control
same,T/C,"dose: 200.0 mg/kg/injection, schedule: Q04DX003 (ip), vehicle: saline with Tween-80",93 % of control
CN1c2ccccc2C2=C(C3=C(CS2)C(=O)CCS3)S1(=O)=O,T/C,[1],100 % of control
same,T/C,[2],99 % of control
same,T/C,[3],100 % of control
CCCCOc1cc2c(cc1C(C)c1ccc(OC)cc1)OCO2 (stereo not drawn),T/C,[10],96 % of control
same,T/C,[11],95 % of control
same,T/C,[12],96 % of control
Cl/C(=C\c1ccccc1)c1nc2ccccc2nc1Cl,T/C,[13],96 % of control
same,T/C,[14],89 % of control
same,T/C,[15],92 % of control
O=C(CN(Cc1ccccc1)Cc1ccccc1)C(O)C1OC(c2ccccc2)OCC1O (stereo not drawn),T/C,[4],91 % of control
same,T/C,[5],88 % of control
same,T/C,[6],89 % of control
C=C1CC[C@H]2C(C)=CC[C@@H]3[C@H](OC(=O)[C@H]3COC)[C@@H]12,T/C,"dose: 100.0 mg/kg/injection, schedule: Q01DX001 (ip), vehicle: saline",107 % of control
same,T/C,"dose: 200.0 mg/kg/injection, schedule: Q01DX001 (ip), vehicle: saline",97 % of control
same,T/C,"dose: 400.0 mg/kg/injection, schedule: Q01DX001 (ip), vehicle: saline",103 % of control
COc1ccc(CSC2=C(C#N)C(=O)NC3(CCCCC3)S2)cc1,T/C,[19],112 % of control
same,T/C,[20],95 % of control
same,T/C,[21],97 % of control
CN1CCN(Cc2ccc(Nc3ccccc3)cc2)CC1,T/C,[16],105 % of control
same,T/C,[17],108 % of control
same,T/C,[18],98 % of control
CCOC(=O)N1C(=O)C2C3C=CC(C2C1=O)C1C2C(=O)N(C(=O)OCC)C(=O)C2C31 (stereo not drawn),T/C,[25],116 % of control and 124 % of control
same,T/C,[13],121 % of control
same,T/C,[14],152 % of control
O=C(NNC(=O)c1ccccc1O)Nc1ccc(Cl)cc1C(F)(F)F,T/C,[19],103 % of control
same,T/C,[20],106 % of control
same,T/C,[21],100 % of control

# Reference: PubChem BioAssay AID330 (DTP/NCI, 2004)
